Series [1] concerns the target T1, human IVD (isovaleryl-CoA dehydrogenase) (Homo sapiens, UniProt P26440, E286A).
T1 construct: residues 33-426 (transit peptide removed), N-terminal 8xHis tag, pET-28a, E. coli BL21(DE3)
T1 sequence (P26440 33-426 E286A): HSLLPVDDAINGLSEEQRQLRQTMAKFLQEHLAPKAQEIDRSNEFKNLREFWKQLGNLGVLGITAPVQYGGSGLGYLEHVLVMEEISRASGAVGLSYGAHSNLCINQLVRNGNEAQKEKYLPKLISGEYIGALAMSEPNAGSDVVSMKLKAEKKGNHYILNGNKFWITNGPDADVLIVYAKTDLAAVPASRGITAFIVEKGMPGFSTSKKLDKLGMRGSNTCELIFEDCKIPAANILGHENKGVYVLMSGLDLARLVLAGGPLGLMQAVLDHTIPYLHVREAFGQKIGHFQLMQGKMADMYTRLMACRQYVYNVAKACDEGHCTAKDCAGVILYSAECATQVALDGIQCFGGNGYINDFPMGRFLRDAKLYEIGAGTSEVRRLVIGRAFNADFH
In words: surface plasmon resonance. To be noted: read-out: KDapp. The class given is binding.

Series [2] deals with T2, human IVD (isovaleryl-CoA dehydrogenase) (Homo sapiens, UniProt P26440).
T2 construct: residues 33-426 (transit peptide removed), N-terminal 8xHis tag, pET-28a, E. coli BL21(DE3)
T2 sequence (P26440 33-426): T1 sequence (P26440 33-426 E286A) with A254E
In words: cryo-EM structure. The class given is binding. To be noted: noncovalent cofactor, 4 FAD per tetramer; FAD added to buffer; pH 7.4; 2.55 Å.

In series [3] the target is T3, Isovaleryl-CoA dehydrogenase (IVD), human, wild type, residues 33-426 (human), P26440.
T3 chain: T1 sequence (P26440 33-426 E286A) with A254E
Kind of series: cryo-EM structure; purified IVD from SEC in 50 mM tris-HCl pH 7.4, 150 mM NaCl with added FAD; no acyl-CoA; 2.55 Å. To be noted: remark: other sources report otherwise.

Series [4] deals with the molecule itself. Kind of series: cryo-EM structure; purified IVD E286A incubated with isovaleryl-CoA or butyryl-CoA at 37 °C for 15 min, FAD bound; 3.35 and 2.91 Å.

Changes are numbered by the printed parent chain. Names and notes keep the numbering of the source.

For the molecule `CC(C)CC(=O)SCCNC(=O)CCNC(=O)[C@H](O)C(C)(C)COP(=O)(O)OP(=O)(O)OC[C@H]1O[C@@H](n2cnc3c(N)ncnc32)[C@H](O)[C@@H]1OP(=O)(O)O` [isovaleryl-CoA], the Kd in series [1] is 848 nM.

On to `Cc1cc2nc3c(=O)[nH]c(=O)nc-3n(C[C@H](O)[C@H](O)[C@H](O)COP(=O)(O)OP(=O)(O)OC[C@H]3O[C@@H](n4cnc5c(N)ncnc54)[C@H](O)[C@@H]3O)c2cc1C` [FAD], for which the cryo-EM structure result in series [2] is “resolved in the form of only combining with FAD molecules”.

As to `CCCC(=O)SCCNC(=O)CCNC(=O)[C@H](O)C(C)(C)COP(=O)(O)OP(=O)(O)OC[C@H]1O[C@@H](n2cnc3c(N)ncnc32)[C@H](O)[C@@H]1OP(=O)(O)O` [butyryl-CoA], the Kd in series [1] turned out to be 494 nM.

B1: Isovaleryl-CoA dehydrogenase (IVD), human, wild type, residues 33-426, P26440 33-426 (enzyme)
chain: T1 sequence (P26440 33-426 E286A) with A254E
In the case of B1, the stoichiometry N in series [3] came to 4.

B2: Isovaleryl-CoA dehydrogenase (IVD), human, E286A mutant, residues 33-426 (enzyme, UniProt P26440 33-426, looked up)
chain: T1 sequence (P26440 33-426 E286A)
notes: human isovaleryl-CoA dehydrogenase (IVD), residues 33 to 426, catalytic-base mutant made by PCR on the WT plasmid; Used for the cryo-EM structures with isovaleryl-CoA and butyryl-CoA; also called IVD E286A; source: E. coli BL21 (DE3), purified (Ni-NTA, SEC on Superdex 200)
Take B2: the binding result in series [4] is given as “binds”.

For orientation: stoichiometry N means the number of molecules, sites or subunits per partner or assembly.

Source of the values: paper PMC12369846, “Structural Insights into Isovaleryl-Coenzyme A Dehydrogenase: Mechanisms of Substrate Specificity and Implications of Isovaleric Acidemia-Associated Mutations” (Research, 2025).
